Values quoted from earlier work as cited in patent US20110268797A1, “MULTICOATED ALISKIREN FORMULATIONS” (Sanovel IIac Sanayi Ve Ticaret Anonim Sirketi, priority 2010, published 2011).
Like-named read-outs stand apart in the source and are kept apart here.

Measured: solubility

COCCCOc1cc(C[C@@H](C[C@H](N)[C@@H](O)C[C@H](C(=O)NCC(C)(C)C(N)=O)C(C)C)C(C)C)ccc1OC [Aliskiren hemifumarate]
freely soluble: in n-octanol | in phosphate buffer | in water
